Data: patent US20060112446A1, “Transposon genes of rice, transformed plant and method of use” (priority 2001, published 2006)

Assays:
[1] = test system: transposon gene with the nucleotide sequence of Sequence Number 3 in scutellum-derived calli; assay: PCR detection of deletion (transposition) of the autonomous transposon gene in scutellum-derived calli treated with 5-azacytidine (Example 9); type: cell-based, rice (Oryza sativa), cultivar Nihonbare; conditions: for The frequency of deletion (calli with deletion/calli examined) / The frequency of deletion (percent): scutellum-derived Nihonbare calli, 2 weeks growth culture
Protocol: In this example, we examined the transposition activity of the nucleotide sequence of Sequence Number 3 in anther-derived calli and in scutellum-derived calli treated with 5-azacytidine.
Seeds of Nihonbare, a rice cultivar, were sterilized in3% sodium hypochlorite solution for 15˜30 min, washed with sterilized water, inoculated on a 90×20 mm of Petri dish (Iwaki Co.) with 20˜30 ml of media at the rate of 9 seeds per dish and subjected to induction culture under light for 24 h at 30° C. Used was a solid medium consisting of 4 g of CHU (N6) BASAL SALT MIXTURE® (Sigma Co.), 1 ml of MS VITAMIN SOLUTION® (Sigma Co.), 2 mg of 2,4-dichloro-phenoxyacetic acid (Sigma Co.), 0.3 g of casamino acids (DIFCO), 0.1 g of myo-inositol (Sigma Co.), 2.878 g proline (Wako), 30 g of sucrose (Wako), 2 g of GELRITE® (Wako) in 1 L of medium. On the 10th day of inductive culture, the calli derived from induced seeds were transferred to a growth medium supplemented with 5-azacytidine (Sigma) at 0 mM, 0.1 mM or 0.5 mM and were subjected to growth culture underlight for 24 h at 33° C. Used was a solid medium consisting of 4 g of CHU (N6) BASAL SALT MIXTURE® (Sigma Co.), 1 ml of MS VITAMIN SOLUTION® (Sigma Co.), 2 mg of 2,4-dichloro-phenoxyacetic acid (Sigma Co.), 0.3 g of casamino acids (DIFCO), 0.1 g of myo-inositol (Sigma Co.), 2.878 g proline (Wako), 30 g of sucrose (Wako), 2 g of GELRITE® (Wako) in 1 L of medium. DNA was extracted from calli derived from seeds in growth culture for two weeks by DNEASY PLANT MINI KIT® (Qiagen).
To amplify the DNA region containing the transposon DNA by PCR, we used the oligonucleotides comprising the sequences of Sequence Numbers 26 and 27 as PCR primers. Each reaction mixture (100 μl) contained 200 ng of DNA, 2.5 units of TAKARA LA TAQ® (Takara Co.), 10 μl of 10× LA PCR bufferII, 6 µl of 25 mM MgCl2, 8 μl of dNTP Mixture (2.5mM each dNTP) and 100 pmol of primers. Each cycle of the polymerase reaction consisted of a denaturation step at 94° C. for 30 sec and an extension step at 68° C. for 12 min. This cycle was repeated 35 times. After the reaction, PCR products were separated on 0.8% LO3 AGAROSE® (Takara Co.) gel electrophoresis.

[2] = test system: transposon gene (430 bp, Sequence Number 1) in calli derived from Nihonbare seeds; assay: PCR detection of deletion (transposition) of the nonautonomous transposon gene in seed-derived calli grown on 5-azacytidine medium (Example 5); type: cell-based, rice (Oryza sativa), cultivar Nihonbare
Protocol: Seeds of Nihonbare were sterilized in 3% sodium hypochlorite solution for 15˜30 min, washed with sterilized water, inoculated on a 90×20 mm of Petri dish (Iwaki Co.) containing 20˜30 ml of media at the rate of 9 seeds per dish and subjected to induction culture under light for 24 h at 30° C. We used a solid medium consisting of 4 g of CHU (N6) BASAL SALT MIXTURE® (Sigma Co.), 1 ml of MS VITAMIN SOLUTION® (Sigma Co.), 2 mg of 2,4-dichloro-phenoxyacetic acid (Sigma Co.), 0.3 g of casamino acids (DIFCO), 0.1 g of myo-inositol (Sigma Co.), 2.878 g proline (Wako), 30 g of sucrose (Wako), 2 g of Gelrite® (Wako) in 1 L of medium.
After several days, calli were started forming from scutellum inside rice seeds and changed to cream-colored ones with 5 mm length on the 10th day of culture. The creamy-colored calli with 5mm length were transplanted to growth media supplemented with 5-azacytidine (Sigma Co.) at either 0 mM, 0.01 mM, 0.03 mM, 0.05 mM, 0.1 mM or 0.3 mM, respectively, and subjected to growth culture under light for 24 h at 30° C. We used a solid medium consisting of 4 g of CHU (N6) BASAL SALT MIXTURE® (Sigma Co.), 1 ml of MS VITAMIN SOLUTION® (Sigma Co.), 2 mg of 2, 4-dichloro-phenoxyacetic acid (Sigma Co.), 0.3 g of casamino acids (DIFCO), 0.1 g of myo-inositol (Sigma Co.), 2.878 g proline (Wako), 30 g of sucrose (Wako), 2 g of GELRITE® (Wako) in 1 L of medium. […]

Nc1ncn([C@@H]2O[C@H](CO)[C@@H](O)[C@H]2O)c(=O)n1 [5-azacytidine]
The frequency of deletion (calli with deletion/calli examined) ([1]; 0.1 mM 5-azacytidine): 2/8
The frequency of deletion (percent) ([1]; 0.1 mM 5-azacytidine): (25%)
The frequency of deletion (calli with deletion/calli examined) ([1]; 0.5 mM 5-azacytidine): 7/8
The frequency of deletion (percent) ([1]; 0.5 mM 5-azacytidine): (87.5%)
Transposition of the transposon gene of Sequence Number 3 ([1]; scutellum-derived calli treated with 5-azacytidine): high frequency of transposition
DNA bands in PCR of the region containing the transposon gene (approx. 300 bp band = transposon gene deleted) ([2]; seed-derived Nihonbare calli, 0.03 mM-0.3 mM 5-azacytidine in growth medium, 2 weeks growth culture): Two DNA bands of approximately 730 bp and 300 bp were observed
Induction of transposition of the transposon gene ([2]; seed-derived calli, 5-azacytidine treatment): could be induced even for seed-derived calli
